# Test system: 186277-243-T-J2-PDC complex spheroid viability
# Test: Anticancer human tumor 186277-243-T-J2-PDC patient-derived colon adenocarcinoma cell line growth inhibition [GQUAD]
# Conditions: for IC50: curve of first compound; for viability, T/C: stronger effect = lower value
# Procedure, shortened: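 Viability of tumor cells grown as complex spheroids with endothelial and stromal cells, exposed to drug combinations. Top concentration at or near clinical Cmax (else 10 microM), diluted in half-log increments.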
# [1] = second compound 0.0316 µM, first compound 0.0316 µM
# [2] = second compound 0.0316 µM, first compound 0.316 µM
# [3] = second compound 0.1 µM, first compound 0.0316 µM
# [4] = second compound 0.1 µM, first compound 0.316 µM
# [5] = second compound 0.316 µM, first compound 0.0316 µM
# [6] = second compound 0.316 µM, first compound 0.316 µM
# [7] = second compound 1 µM, first compound 0.0316 µM
# [8] = second compound 1 µM, first compound 0.316 µM
# [9] = second compound 3.16 µM, first compound 0.0316 µM
# [10] = second compound 3.16 µM, first compound 0.316 µM
# [11] = second compound 10 µM, first compound 0.0316 µM
# [12] = second compound 10 µM, first compound 0.316 µM
# 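Wherever viability, T/C is given: 100% = DMSO vehicle control viability.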
compound,measurement,setting,value
Cc1[nH]c2ccccc2c1CCNCc1ccc(/C=C/C(=O)NO)cc1 + Cc1cnc(CNC(=O)c2c(=O)c3ccc(N4CCCN(C)CC4)nc3n3c2sc2ccccc23)cn1,IC50,second compound 0.0316 µM,30.9 nM
same,IC50,second compound 0.1 µM,17.9 nM
same,IC50,second compound 0.316 µM,10.2 nM
same,IC50,second compound 1 µM,< 0.999 nM
same,IC50,second compound 3.16 µM,< 0.999 nM
same,IC50,second compound 10 µM,< 0.999 nM
same,"viability, T/C","second compound 0.0316 µM, first compound 0.000999 µM",108%
same,"viability, T/C","second compound 0.0316 µM, first compound 0.00316 µM",101%
same,"viability, T/C","second compound 0.0316 µM, first compound 0.00999 µM",110%
same,"viability, T/C",[1],48.9%
same,"viability, T/C","second compound 0.0316 µM, first compound 0.0999 µM",13.6%
same,"viability, T/C",[2],1.14%
same,"viability, T/C","second compound 0.1 µM, first compound 0.000999 µM",77.5%
same,"viability, T/C","second compound 0.1 µM, first compound 0.00316 µM",79.7%
same,"viability, T/C","second compound 0.1 µM, first compound 0.00999 µM",61.4%
same,"viability, T/C",[3],36.7%
same,"viability, T/C","second compound 0.1 µM, first compound 0.0999 µM",15.4%
same,"viability, T/C",[4],0.78%
same,"viability, T/C","second compound 0.316 µM, first compound 0.000999 µM",58.4%
same,"viability, T/C","second compound 0.316 µM, first compound 0.00316 µM",52.8%
same,"viability, T/C","second compound 0.316 µM, first compound 0.00999 µM",49.2%
same,"viability, T/C",[5],34.9%
same,"viability, T/C","second compound 0.316 µM, first compound 0.0999 µM",9.31%
same,"viability, T/C",[6],1.35%
same,"viability, T/C","second compound 1 µM, first compound 0.000999 µM",40.5%
same,"viability, T/C","second compound 1 µM, first compound 0.00316 µM",40.9%
same,"viability, T/C","second compound 1 µM, first compound 0.00999 µM",38.4%
same,"viability, T/C",[7],20%
same,"viability, T/C","second compound 1 µM, first compound 0.0999 µM",4.65%
same,"viability, T/C",[8],0.08%
same,"viability, T/C","second compound 3.16 µM, first compound 0.000999 µM",35%
same,"viability, T/C","second compound 3.16 µM, first compound 0.00316 µM",38.6%
same,"viability, T/C","second compound 3.16 µM, first compound 0.00999 µM",28.3%
same,"viability, T/C",[9],21.6%
same,"viability, T/C","second compound 3.16 µM, first compound 0.0999 µM",0.18%
same,"viability, T/C",[10],0.11%
same,"viability, T/C","second compound 10 µM, first compound 0.000999 µM",34.7%
same,"viability, T/C","second compound 10 µM, first compound 0.00316 µM",36.3%
same,"viability, T/C","second compound 10 µM, first compound 0.00999 µM",28.8%
same,"viability, T/C",[11],18.9%
same,"viability, T/C","second compound 10 µM, first compound 0.0999 µM",0.27%
same,"viability, T/C",[12],0.24%
O=C(NO)c1cnc(N2CCN(S(=O)(=O)c3ccc4ccccc4c3)CC2)nc1 + Cc1cnc(CNC(=O)c2c(=O)c3ccc(N4CCCN(C)CC4)nc3n3c2sc2ccccc23)cn1,IC50,second compound 0.0316 µM,148 nM
same,IC50,second compound 0.1 µM,102 nM
same,IC50,second compound 0.316 µM,61.9 nM
same,IC50,second compound 1 µM,< 31.6 nM
same,IC50,second compound 3.16 µM,< 31.6 nM
same,IC50,second compound 10 µM,< 31.6 nM
same,"viability, T/C",[1],96.1%
same,"viability, T/C","second compound 0.0316 µM, first compound 0.1 µM",71.1%
same,"viability, T/C",[2],9.06%
same,"viability, T/C","second compound 0.0316 µM, first compound 1 µM",0.26%
same,"viability, T/C","second compound 0.0316 µM, first compound 3.16 µM",0.12%
same,"viability, T/C","second compound 0.0316 µM, first compound 10 µM",0.12%
same,"viability, T/C",[3],66.5%
same,"viability, T/C","second compound 0.1 µM, first compound 0.1 µM",50.9%
same,"viability, T/C",[4],9.09%
same,"viability, T/C","second compound 0.1 µM, first compound 1 µM",0.28%
same,"viability, T/C","second compound 0.1 µM, first compound 3.16 µM",0.09%
same,"viability, T/C","second compound 0.1 µM, first compound 10 µM",0.1%
same,"viability, T/C",[5],64.5%
same,"viability, T/C","second compound 0.316 µM, first compound 0.1 µM",39.7%
same,"viability, T/C",[6],8.31%
same,"viability, T/C","second compound 0.316 µM, first compound 1 µM",0.44%
same,"viability, T/C","second compound 0.316 µM, first compound 3.16 µM",0.08%
same,"viability, T/C","second compound 0.316 µM, first compound 10 µM",0.1%
same,"viability, T/C",[7],40.2%
same,"viability, T/C","second compound 1 µM, first compound 0.1 µM",34.2%
same,"viability, T/C",[8],8.56%
same,"viability, T/C","second compound 1 µM, first compound 1 µM",0.11%
same,"viability, T/C","second compound 1 µM, first compound 3.16 µM",0.08%
same,"viability, T/C","second compound 1 µM, first compound 10 µM",0.1%
same,"viability, T/C",[9],33.3%
same,"viability, T/C","second compound 3.16 µM, first compound 0.1 µM",24.1%
same,"viability, T/C",[10],0.15%
same,"viability, T/C","second compound 3.16 µM, first compound 1 µM",0.1%
same,"viability, T/C","second compound 3.16 µM, first compound 3.16 µM",0.1%
same,"viability, T/C","second compound 3.16 µM, first compound 10 µM",0.12%
same,"viability, T/C",[11],34.2%
same,"viability, T/C","second compound 10 µM, first compound 0.1 µM",19.8%
same,"viability, T/C",[12],0.24%
same,"viability, T/C","second compound 10 µM, first compound 1 µM",0.14%
same,"viability, T/C","second compound 10 µM, first compound 3.16 µM",0.16%
same,"viability, T/C","second compound 10 µM, first compound 10 µM",0.18%
